In patent US20050107306A1, “Treatment of respiratory disease associated with matrix metalloproteases by inhalation of synthetic matrix metalloprotease inhibitors” (priority 2003, published 2005):

Key:
MMP-1 (collagenase-1) = target: T1, MMP-1 (collagenase-1) (Homo sapiens, UniProt P03956); settings: read-out: MMP-1 (collagenase-1) Kl; cited from earlier work
T1 sequence (P03956 100-469): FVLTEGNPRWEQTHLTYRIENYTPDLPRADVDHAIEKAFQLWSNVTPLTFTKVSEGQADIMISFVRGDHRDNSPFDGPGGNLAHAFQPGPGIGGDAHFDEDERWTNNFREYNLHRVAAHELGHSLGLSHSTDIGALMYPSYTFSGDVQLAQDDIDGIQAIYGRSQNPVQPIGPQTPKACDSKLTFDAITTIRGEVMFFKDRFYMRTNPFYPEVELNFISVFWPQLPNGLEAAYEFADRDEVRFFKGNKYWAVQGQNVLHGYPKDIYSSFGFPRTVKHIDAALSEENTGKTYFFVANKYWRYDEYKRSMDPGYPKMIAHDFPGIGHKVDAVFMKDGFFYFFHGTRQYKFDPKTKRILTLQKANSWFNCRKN

MMP-3 (stromelysin) = MMP-3 (stromelysin) (Homo sapiens, UniProt P08254); settings: read-out: MMP-3 (stromelysin) Kl; cited from earlier work
MMP-3 (stromelysin), sequence (P08254 100-477, species assumed): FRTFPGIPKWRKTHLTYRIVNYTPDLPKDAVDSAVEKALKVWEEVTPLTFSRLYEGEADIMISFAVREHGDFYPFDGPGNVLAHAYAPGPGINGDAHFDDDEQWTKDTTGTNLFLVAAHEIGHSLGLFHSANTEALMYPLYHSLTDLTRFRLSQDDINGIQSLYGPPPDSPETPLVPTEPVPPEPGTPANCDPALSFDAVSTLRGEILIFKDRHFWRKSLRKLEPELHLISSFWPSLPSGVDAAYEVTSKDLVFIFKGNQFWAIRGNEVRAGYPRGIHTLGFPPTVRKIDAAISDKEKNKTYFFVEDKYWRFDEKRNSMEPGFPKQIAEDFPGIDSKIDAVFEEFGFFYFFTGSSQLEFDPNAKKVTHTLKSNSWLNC

MMP-7 = target: T2, MMP-7 (Homo sapiens, UniProt P09237); settings: read-out: MMP-7 Kl; cited from earlier work
T2 sequence (P09237 95-267): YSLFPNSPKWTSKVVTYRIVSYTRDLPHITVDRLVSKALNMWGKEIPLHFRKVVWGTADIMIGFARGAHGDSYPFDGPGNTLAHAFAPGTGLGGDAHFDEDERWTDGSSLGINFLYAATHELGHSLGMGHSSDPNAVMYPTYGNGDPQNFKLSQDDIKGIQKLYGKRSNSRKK

MMP-2 (gelatinase A) = target: T3, MMP-2 (gelatinase A) (Homo sapiens, UniProt P08253); settings: read-out: MMP-2 (gelatinase A) Kl; cited from earlier work
T3 sequence (P08253 110-660): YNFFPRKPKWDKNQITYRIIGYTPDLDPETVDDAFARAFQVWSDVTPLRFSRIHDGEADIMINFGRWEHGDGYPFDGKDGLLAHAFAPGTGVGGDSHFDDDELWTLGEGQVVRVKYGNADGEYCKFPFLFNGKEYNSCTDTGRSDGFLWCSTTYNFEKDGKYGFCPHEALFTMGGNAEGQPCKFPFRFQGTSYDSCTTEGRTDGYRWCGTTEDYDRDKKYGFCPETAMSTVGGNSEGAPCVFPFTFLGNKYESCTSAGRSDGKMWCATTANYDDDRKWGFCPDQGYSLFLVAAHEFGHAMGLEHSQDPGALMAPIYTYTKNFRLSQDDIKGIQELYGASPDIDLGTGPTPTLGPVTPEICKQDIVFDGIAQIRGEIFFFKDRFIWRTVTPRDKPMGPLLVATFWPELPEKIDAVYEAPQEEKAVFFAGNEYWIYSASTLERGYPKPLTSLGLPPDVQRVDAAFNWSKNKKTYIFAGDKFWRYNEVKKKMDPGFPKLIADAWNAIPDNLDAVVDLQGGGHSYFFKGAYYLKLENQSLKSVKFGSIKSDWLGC

MMP-9 (gelatinase B) = MMP-9 (gelatinase B) (Homo sapiens, UniProt P14780); settings: read-out: MMP-9 (gelatinase B) Kl; cited from earlier work
MMP-9 (gelatinase B), sequence (P14780 94-707, species assumed): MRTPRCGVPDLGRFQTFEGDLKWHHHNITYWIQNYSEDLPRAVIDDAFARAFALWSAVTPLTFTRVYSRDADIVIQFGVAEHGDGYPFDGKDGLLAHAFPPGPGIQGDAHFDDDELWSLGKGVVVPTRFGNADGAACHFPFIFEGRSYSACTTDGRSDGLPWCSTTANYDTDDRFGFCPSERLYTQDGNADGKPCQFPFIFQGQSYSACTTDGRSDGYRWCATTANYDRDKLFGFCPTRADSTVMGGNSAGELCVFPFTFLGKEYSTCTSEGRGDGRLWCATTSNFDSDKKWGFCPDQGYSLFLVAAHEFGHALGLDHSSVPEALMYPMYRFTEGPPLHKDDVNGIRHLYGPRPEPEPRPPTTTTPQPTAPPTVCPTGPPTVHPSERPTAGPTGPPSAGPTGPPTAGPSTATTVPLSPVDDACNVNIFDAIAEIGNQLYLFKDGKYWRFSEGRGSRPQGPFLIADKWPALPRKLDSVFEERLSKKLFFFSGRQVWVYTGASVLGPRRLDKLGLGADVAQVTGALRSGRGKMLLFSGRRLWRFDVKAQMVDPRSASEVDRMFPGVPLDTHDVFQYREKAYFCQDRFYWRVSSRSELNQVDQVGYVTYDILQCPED

[1] = Solubility in liquid formulation; assay type: physicochemical; settings: depending on the formulation, read-out: soluble in liquid formulation at levels up to
[2] = test system: murine model of cigarette smoke-related emphysema; assay: Murine model of cigarette smoke-related emphysema: lung morphometry, mean linear intercept (Lm); assay type: in vivo; settings: smoking mice
Protocol: Five groups of animals were studied. […] Group 1 animals (32 animals) were control non-smoking animals. Group 2 animals (32 animals) were administered aerosolized PBS (10 ml/5 animals) followed by cigarette smoke. […] All adult mice (12 weeks of age at initiation) were exposed to two cigarettes per day, 6 days/wk for up to 6 months. Within each treatment group there were 3 timepoints for analysis: 1 week, 3 months, and 6 months. […] Delivery proceeded until the nebulizer ran dry (about 30 minutes). […] All were prepared in sterile saline. Vehicle control animals received sterile saline only. In each animal, the right lung was removed and used for fixation/inflation and paraffin embedding to study morphometry, to determine mean linear intercept (Lm), which is the distance between the walls of alveoli, and which increases as proteases (e.g., elastase, metalloproteases) break down pulmonary structure.

[3] = test system: murine model of cigarette smoke-related emphysema; assay: Murine model of cigarette smoke-related emphysema: inflammatory cells in bronchoalveolar lavage (BAL); assay type: in vivo; settings: smoking mice
Protocol: Five groups of animals were studied. […] Group 1 animals (32 animals) were control non-smoking animals. Group 2 animals (32 animals) were administered aerosolized PBS (10 ml/5 animals) followed by cigarette smoke. […] All adult mice (12 weeks of age at initiation) were exposed to two cigarettes per day, 6 days/wk for up to 6 months.
Within each treatment group there were 3 timepoints for analysis: 1 week, 3 months, and 6 months. After one week, 3 months, and 6 months on study, 10 animals, 10 animals, and 12 animals respectively, from each group were sacrificed and analytical work on lungs and lung samples was performed (see below).
10 mL of sterile saline or drug was placed in the nebulizer and delivered to each group of five animals. Delivery proceeded until the nebulizer ran dry (about 30 minutes).
All were prepared in sterile saline. Vehicle control animals received sterile saline only.
The left lung was subjected to bronchoalveolar lavage (BAL) to determine levels of the inflammatory cell types macrophages and neutrophils, which were counted by morphology. BAL samples were collected using 0.5 mL rinses of the left lung.

[4] = test system: MMP activity (assay designed primarily to detect MMP-9 activity); assay: MMP activity of BAL samples from smoking mice treated with nebulized ilomastat; assay type: in vivo; settings: for MMP Activity of BAL sample (mAU/min): drug treated (ilomastat 100 ug/mL nebulized daily), individual mouse samples
Protocol: The 2-week study was a repeat of the 1-week study but used 10 animals/group.
At the end of each study, BAL samples were obtained from the lungs of each animal using established procedures and each sample was tested for MMP activity using an assay designed primarily to detect MMP-9 activity.
• 1. 150 μL of MMP Reagent Mix was added to each well. The reagent mix consisted of the appropriate dilutions of previously prepared stock solutions in order to yield the following final concentrations in 200 μL final volume/well: • HEPES stock (50 mM final) • CaCl2 stock (10 mM final) • Ellmans Reagent stock (1.25 mM final) • Substrate (Bachem #H7145) stock (475 μM final) • Q.S. with dH2O • 2. Microtiter plate was placed in the 30° C. incubator for 15 min. • 3. 50 μL/well of each BAL sample was added into the appropriate wells • 4. 50 μL/well of vehicle control buffer was added to blank well. • 5. 48 μL/well of vehicle control buffer and 2 μL of MMP-9 (20 ng, CalBiochem #444231) was added to the control well. • 6. Plate was placed in VersaMax Microtiter Plate Reader which was pre-equilibrated to 30° C. • 7. Abs410 was read every 5-6 min for 3 hrs Results and Conclusions: […]

sheep model for asthma = assay: Sheep model for asthma: carbachol challenge, DRC/PC 400%; assay type: in vivo; settings: 30 μg dose, 24 hours after administration
Protocol: Phosphate buffered saline (PBS) (control) • 2. […] Results:
DRC/PC %400 refers to the amount of carbochol required to induce a 400% change in airway hyperresponsiveness. The amount required is measured as carbachol breath units (BU); the aerosol concentration of carbachol is fixed and the animal continues to inhale until the appropriate response in obtained. Thus, a higher value indicates a protective effect against an asthmatic reaction.

human MMP-9 = assay: MMP-9 fluorescent activity assay in induced sputum samples; assay type: biochemical
Protocol: Induced sputum (IS) samples were collected from 22 healthy smokers (HS) and 19 patients with clinical evidence of chronic obstructive pulmonary disease (COPD) (Inclusion criteria: FER<0.7 and FEV1 % Predicted 30-80%). The IS was processed using dithiothreitol as previously described by Pavord et al. (1997) Thorax 52, 498-501. 15 randomly selected IS were used for inhibitor studies (COPD n=7; HS n=8).
MMP-9 activity in IS was measured using a commercially available human MMP-9 fluorescent activity assay (Fluorokine® E, R&D Systems, Europe, UK). Following binding of MMP-9 (92, 82, 62 kDa forms) to an immobilized monoclonal antibody, a fluorogenic substrate linked to a quencher molecule was added. Any active MMP-9 cleaved the peptide linkers between the fluorophore and the quencher molecule allowing measurement of the fluorescence using a fluorimeter (Spectrafluor Plus, Tecan, UK). For inhibitor studies, the IS samples were incubated for 30 minutes at room temperature with the inhibitors prior to addition of the synthetic substrate.

[5] = target: MMP-12 (macrophage metalloelastase, ME) (Homo sapiens, UniProt P39900); settings: read-out: MMP-12 (macrophage metalloelastase, ME) Kl; cited from earlier work
MMP-12 (macrophage metalloelastase, ME), sequence (P39900 106-470, species assumed): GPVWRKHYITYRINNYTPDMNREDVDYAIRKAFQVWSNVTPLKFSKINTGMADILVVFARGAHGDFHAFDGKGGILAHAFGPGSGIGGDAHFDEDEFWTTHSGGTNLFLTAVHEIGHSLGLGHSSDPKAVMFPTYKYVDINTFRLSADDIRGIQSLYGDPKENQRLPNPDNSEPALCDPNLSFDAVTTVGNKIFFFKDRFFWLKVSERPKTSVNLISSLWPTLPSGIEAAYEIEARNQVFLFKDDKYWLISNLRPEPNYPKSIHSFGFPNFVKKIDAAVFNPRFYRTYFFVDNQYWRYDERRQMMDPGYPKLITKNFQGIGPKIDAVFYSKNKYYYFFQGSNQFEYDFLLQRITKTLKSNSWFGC

O=C(NO)C1(CS(=O)(=O)c2ccc(Oc3ccc(Cl)cc3)cc2)CCOCC1 [RS-130,830]
Ki (MMP-1 (collagenase-1)): 590 nM | Ki (MMP-3 (stromelysin)): 9 nM | Ki (MMP-7): 1200 nM

CN1C(=O)N(C[C@@H](C(=O)NO)[C@@H](CC2CCCC2)C(=O)N2CCCCC2)C(=O)C1(C)C [Ro 32-3555]
Ki (MMP-2 (gelatinase A)): 154 nM | Ki (MMP-9 (gelatinase B)): 59 nM

CNC(=O)[C@H](Cc1c[nH]c2ccccc12)NC(=O)[C@@H](CC(=O)NO)CC(C)C [ilomastat, N-[2(R)-2(hydroxyamidocarbonylmethyl)-4-methylpentanoyl]-L-tryptophan methylamide]
solubility [1]: ≤ 15 mg/mL | % protection (Lm) ([2]; ilomastat dose 1 (100 ug/mL)): 83% | Lm vs. non-smokers (%) ([2]; ilomastat dose 1 (100 ug/mL)): 2.6% | % protection (Lm) ([2]; ilomastat dose 2 (50 ug/ml)): 96% | Lm vs. non-smokers (%) ([2]; ilomastat dose 2 (50 ug/ml)): 0.6% | % protection (Lm) ([2]; ilomastat dose 3 (10 ug/ml)): 42% | Lm vs. non-smokers (%) ([2]; ilomastat dose 3 (10 ug/ml)): 8.7% | Macrophages, cells per ml of BAL fluid ([3]; ilomastat dose 1 (100 ug/mL)): 1000 cells per ml | Neutrophils, cells per ml of BAL fluid ([3]; ilomastat dose 1 (100 ug/mL)): 100 cells per ml | Macrophages, cells per ml of BAL fluid ([3]; ilomastat dose 2 (50 ug/ml)): 1500 cells per ml | Neutrophils, cells per ml of BAL fluid ([3]; ilomastat dose 2 (50 ug/ml)): 220 cells per ml | Macrophages, cells per ml of BAL fluid ([3]; ilomastat dose 3 (10 ug/ml)): 2500 cells per ml | Neutrophils, cells per ml of BAL fluid ([3]; ilomastat dose 3 (10 ug/ml)): 50 cells per ml | MMP activity of BAL samples, in words ([4]; 1-week study, all five treated mouse samples): no detectable MMP activity | MMP activity of BAL samples, in words ([4]; 2-week study, all ten treated mouse samples): no detectable MMP activity | MMP Activity of BAL sample (mAU/min) ([4]; 2 week study): 0 mAU/min | MMP Activity of BAL sample (mAU/min) ([4]; Pilot study (1 week)): 0 mAU/min | effect against asthmatic reaction, in words (sheep model for asthma): clear protective effect | inhibitory effect on MMP-9 activity in induced sputum (human MMP-9; 30 uM, IS from COPD patients, p=0.249 (ns)): 9.2+/−7.2% | inhibitory effect on MMP-9 activity in induced sputum (human MMP-9; 30 uM, IS from healthy smokers (HS), p=0.015): 22.6+/−6.7% | inhibitory effect on MMP-9 activity in induced sputum (human MMP-9; 100 uM, IS from COPD patients, p=0.004): 42.5+/−9.3% | inhibitory effect on MMP-9 activity in induced sputum (human MMP-9; 100 uM, IS from healthy smokers (HS), p=0.008): 39.4+/−6.3% | Ki (MMP-3 (stromelysin)): 26 to 27 nM | Ki [5]: 0.2 to 0.4 nM
